Test results reported in patent publication US20150087622A1, “NEW METHOD OF USE OF A PESTICIDE” (SYNGENTA PARTICIPATIONS AG, priority 2012, published 2015).
Read-outs that look alike come from different tables or passages of the source.

How the values were obtained:
Spodoptera frugiperda = test: Foliar spray application on cotton, larval mortality of Spodoptera frugiperda; type: in vivo; conditions: 4 DAT (days after treatment)
Excerpt: For example on both Spodoptera frugiperda and Plutella xylostella similar activities were obtained for the same rates: […]

Colorado potato beetle = conditions: cited from earlier work
Diabrotica balteata = test: Transovarial effects on Diabrotica balteata adults fed on sprayed bean plants (% egg mortality); type: in vivo; conditions: for mortality at 10 ppm / mortality at 25 ppm / mortality at 50 ppm: Diabrotica balteata
Protocol: The following IGRs in Table 1 were tested for their transovarial effects on Diabrotica balteata by observing percentage egg mortality.
Bean plants (Phaseolus vulgaris, var. Amata) were treated in an automatic spray chamber (ARO-1) with around 500 l/ha. After drying of the spray deposits, plants were placed in gauze cages and infested with newly hatched (0-24 h old) Diabrotica balteata adults. After seven days, treated plants were removed and replaced by non-treated plants. From day seven to day 38 eggs were collected in three-day intervals, counted and checked on number of hatched larvae (% egg mortality). Percentage egg mortality was calculated as the number of unhatched eggs per total number of eggs laid.

[1] = egg laying period 1, read-out: % egg mortality: on egg laying period 1
[2] = egg laying period 2, read-out: % egg mortality: on egg laying period 2
[3] = egg laying period 3, read-out: % egg mortality: on egg laying period 3
[4] = egg laying period 4, read-out: % egg mortality: on egg laying period 4
[5] = egg laying period 5, read-out: % egg mortality: on egg laying period 5
[6] = egg laying period 6, read-out: % egg mortality: on egg laying period 6
[7] = egg laying period 7, read-out: % egg mortality: on egg laying period 7
[8] = egg laying period 8, read-out: % egg mortality: on egg laying period 8
[9] = egg laying period 9, read-out: % egg mortality: on egg laying period 9
[10] = egg laying period 10, read-out: % egg mortality: on egg laying period 10
[11] = egg laying period 11, read-out: % egg mortality: on egg laying period 11
[12] = egg laying period 12, read-out: % egg mortality: on egg laying period 12

Compound: O=C(NC(=O)c1c(F)cccc1F)Nc1ccc(OC(F)(F)C(F)OC(F)(F)F)c(Cl)c1 (single isomer, unassigned; (+)) [Rimon, (+)-I-[3-chloro-4-(1,1,2-trifluoro-2-trifluoromethoxyethoxy)phenyl]-3-(2,6-difluorobenzoyl)urea]
- LC50 (Spodoptera frugiperda): LC50 = 1.1 ppm
- ability to economically stop egg hatching in Colorado potato beetle (Colorado potato beetle; 25 g AI ha^-1 (Cutler et al.)): insufficient
- viability of Colorado potato beetle eggs (Colorado potato beetle; adults feeding on novaluron-treated potato leaves, 87 g AI ha^-1 (Alyokhin et al.)): reduced viability
- time of feeding on untreated leaves after which the effect reverses (Colorado potato beetle; after 87 g AI ha^-1 (Alyokhin et al.)): 48 to 96 h
- total number of sterilised (unhatched) eggs, considered over the whole test period (Diabrotica balteata; 5 g AI ha^-1): ≈ 25%
- total number of sterilised (unhatched) eggs, considered over the whole test period (Diabrotica balteata; 12.5 g AI ha^-1): ≈ 25%
- total number of sterilised (unhatched) eggs, considered over the whole test period (Diabrotica balteata; 25 g AI ha^-1): ≈ 90%
- days of effect (egg hatch inhibition) after a single foliar treatment (Diabrotica balteata; 50 g AI/ha during adult feeding on the crop plant): up to 21 days
- mortality at 10 ppm (Diabrotica balteata; [1]): 100%
- mortality at 10 ppm (Diabrotica balteata; [2]): 100%
- mortality at 10 ppm (Diabrotica balteata; [3]): 99%
- mortality at 10 ppm (Diabrotica balteata; [4]): 50%
- mortality at 10 ppm (Diabrotica balteata; [5]): 10%
- mortality at 10 ppm (Diabrotica balteata; [6]): 13%
- mortality at 10 ppm (Diabrotica balteata; [7]): 10%
- mortality at 10 ppm (Diabrotica balteata; [8]): 11%
- mortality at 10 ppm (Diabrotica balteata; [9]): 18%
- mortality at 10 ppm (Diabrotica balteata; [10]): 9%
- mortality at 10 ppm (Diabrotica balteata; [11]): 9%
- mortality at 10 ppm (Diabrotica balteata; [12]): 12%
- mortality at 25 ppm (Diabrotica balteata; [1]): 100%
- mortality at 25 ppm (Diabrotica balteata; [2]): 100%
- mortality at 25 ppm (Diabrotica balteata; [3]): 100%
- mortality at 25 ppm (Diabrotica balteata; [4]): 93%
- mortality at 25 ppm (Diabrotica balteata; [6]): 25%
- mortality at 25 ppm (Diabrotica balteata; [7]): 14%
- mortality at 25 ppm (Diabrotica balteata; [9]): 22%
- mortality at 25 ppm (Diabrotica balteata; [10]): 7%
- mortality at 25 ppm (Diabrotica balteata; [11]): 0%
- mortality at 25 ppm (Diabrotica balteata; [12]): 4%
- mortality at 50 ppm (Diabrotica balteata; [2]): 100%
- mortality at 50 ppm (Diabrotica balteata; [3]): 100%
- mortality at 50 ppm (Diabrotica balteata; [4]): 100%
- mortality at 50 ppm (Diabrotica balteata; [5]): 100%
- mortality at 50 ppm (Diabrotica balteata; [6]): 100%
- mortality at 50 ppm (Diabrotica balteata; [7]): 100%
- mortality at 50 ppm (Diabrotica balteata; [8]): 100%
- mortality at 50 ppm (Diabrotica balteata; [9]): 92%
- mortality at 50 ppm (Diabrotica balteata; [10]): 29%
- mortality at 50 ppm (Diabrotica balteata; [11]): 96%
- mortality at 50 ppm (Diabrotica balteata; [12]): 41%
- Spray interval (Diabrotica balteata; Rate 5 g AI/ha): 7 days
- Spray interval (Diabrotica balteata; Rate 12.5 g AI/ha): 10 days
- Spray interval (Diabrotica balteata; Rate 25 g AI/ha): 21 days
- rank for transovarial activity on Diabrotica balteata (Diabrotica balteata; among the IGRs tested): by far the best compound
- Transovarial effects on treated adults of Diabrotica balteata (Diabrotica balteata; at the used dose rates): Transovarial effects can be observed
